In general, EC50 refers to the concentration giving half of the maximal effect. What is called IC50 is the point on the concentration scale where inhibition reaches its midpoint. Higher therefore signals lower potency.

Structures are written as SMILES. Calls of active or inactive are those of the source.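 How the source made its calls: active means compounds giving half or more protection of infected cells from virus-caused growth loss, again on retest; inactive means the rest.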 Where a SMILES comes first, the peptide text is derived from it. [ ]: non-standard residue; d: D form. The star is where a group is joined. Chg = N[CH](C(=O)O)C1CCCCC1; Cbz = O=C(OCc1ccccc1)*; OBn = c1ccc(CO*)cc1

The results in this text go back to PubChem BioAssay AID179 (DTP/NCI, 2004).

The subject of the assay is CEM cells HIV-1 protection, formazan growth assay. As to the kind of experiment: NCI AIDS Antiviral Assay. The conditions noted are these: for IC50: measured here: growth of uninfected CEM cells. The method, boiled down: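 Category rules: moderately active means at least 50% protection on retest, and confirmed active means 100% protection reproducibly. The underlying data came from a formazan growth assay in HIV-1-infected CEM cells.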

Turning to `CC(=O)NC1COC(COC(=O)CCCCCCCCCCNC(=O)c2ccc([N+](=O)[O-])c3c(=O)c4ccccc4[nH]c23)C(O)C1OC(C)C(=O)NC(C(=O)NC(CCC(N)=O)C(=O)OCc1ccccc1)C(C)C` (configuration not stated), the EC50 is over 9.55 µM and the IC50 was over 9.55 µM.
Turning to `Cc1ccc(N2C(=O)/C(=c3\s/c(=C(/N)O)c(=N)n3-c3ccccc3)SC2=S)cc1`, the EC50 is over 4.57 µM and the 50% inhibitory concentration (IC50) was over 4.57 µM.
For the compound `O=C(Oc1ccc(Cl)cc1[N+](=O)[O-])c1ccccc1`, the result was inactive.
On to `COC(=O)C(NC(=O)C(CC(=O)OCc1ccccc1)NC(=O)OCc1ccccc1)C1CCCCC1` (configuration not stated) (Cbz-Asp(OBn)-[Chg]-OMe; configuration not given here), for which the EC50 is over 200 µM and the IC50 was 105 µM.
The matching figures for `COC(=O)C1Cc2cc3c(cc2C1)CCC3`: over 200 µM and over 200 µM.
With `Cc1ccc2nn(-c3ccc(O)cc3)nc2c1`, the outcome was inactive.
On the same count and under the same terms, to `NCCCC1CCCCNC1` (configuration not stated) belongs “inactive”.
Turning to `NC12CC3CC(C1)CC(C(=O)O)(C3)C2`, the EC50 is over 1070 µM and the IC50 was over 1070 µM.
`COc1ccc2c(C)cc(=O)oc2c1`: the EC50 was over 200 µM and the half-inhibitory concentration (IC50) is over 200 µM.
For `C/C(=N\NC(=O)c1ccccc1O)c1c(O)cc(C)oc1=O`, the EC50 was over 85.1 µM and the 50% inhibitory concentration (IC50) is 70.8 µM.
With `CCOC(=O)C1CSCCSC1`, the EC50 was over 174 µM and the 50% inhibitory concentration (IC50) was over 174 µM.
Take `COC(=O)Cc1cc(=O)[nH]c2c1C(=O)CCC2`: the outcome was inactive.
Take `O=C1OC(OC/C(Br)=C(/Br)COC2OC(=O)C(Cl)=C2Cl)C(Cl)=C1Cl` (configuration not stated): the EC50 is over 200 µM and the IC50 worked out at 3.47 µM.
On to `CN1CCN(Cc2nc3cccc4c3c([n+]2[O-])-c2ccccc2-4)CC1`, for which the outcome was inactive.
As to `CN(C)Cc1cc(N=Nc2ccccc2)cc(CN(C)C)c1O`, the EC50 was over 200 µM and the IC50 was 102 µM.
The matching figures for `Cc1ccc(NC(=O)c2cc(S(=O)(=O)Nc3n[nH]c(=O)n3-c3ccccc3)c(S)cc2Cl)cc1`: 42.7 µM and over 200 µM.
Turning to `CC[C@@H]1CC2CC3c4[nH]c5ccccc5c4CCN(C2)C31` (some centres not stated), the result was inactive.
As to `CN(C)c1nc(N(C)C)nc(N2C(=O)CCC2=O)n1`, the EC50 is over 200 µM and the IC50 is over 200 µM.
`CC1=CC(=O)C(C(O)(C(F)(F)F)C(F)(F)F)C(C)(C)C1` (configuration not stated): the EC50 was over 200 µM and the IC50 was over 200 µM.
Regarding `CSc1n(CC(=O)OC(C)(C)C)nc[n+]1N`, the EC50 is over 200 µM and the concentration for half-maximal inhibition (IC50) was over 200 µM.
Regarding `O=[N+]([O-])c1ccc(N/N=C/CC(O)(C(F)(F)F)C(F)(F)F)c([N+](=O)[O-])c1`, the EC50 was over 200 µM and the IC50 was 7.08 µM.
As for `CCC/C=C/C=C\C(=O)O[C@@H]1[C@@H](C)[C@]2(O)[C@@H]3C=C(C)C(=O)[C@H]3CC(COC(C)=O)=C[C@H]2[C@@H]2C(C)(C)[C@]12OC(C)=O`, the result was inactive.
For the compound `O=C1NC(N/N=C\c2ccccc2)=N/C1=C/c1ccccc1`, the EC50 was over 200 µM and the IC50 turned out to be 35.5 µM.
In the case of `NC(=O)CSc1nc2ccccc2c(=O)n1N`, the EC50 is over 200 µM and the concentration for half-maximal inhibition (IC50) is over 200 µM.
In the case of `Clc1cccc(Cl)c1C1SCc2nc3cc4ccccc4cc3n21` (configuration not stated), the EC50 was over 200 µM and the IC50 is over 200 µM.
As for `COc1ccc(-c2coc3cc(O)cc(O)c3c2=O)cc1`, the EC50 was over 200 µM and the IC50 was determined as 12.6 µM.
The matching figures for `N#C/C(N)=C(\C#N)NC(=O)C(=O)N/C(C#N)=C(\N)C#N`: 69.2 µM and over 200 µM.
The matching figures for `CCOC(=O)C(CC(C)C)NC(=O)C(Cc1ccc(N(CCCl)CCCl)cc1)NC(C)=O` (configuration not stated): over 10.7 µM and 0.132 µM.
The like results for `COc1ccc2c(ccc(=O)n2C)c1` were, in that order, over 200 µM and over 200 µM.
Regarding `Cc1cccc2c(NCCC[N+](C)(C)[O-])c3c([N+](=O)[O-])ccc(C)c3nc12`, the EC50 is over 100 µM and the concentration for half-maximal inhibition (IC50) amounted to 0.372 µM.
The like results for `COc1cc(/C=C2\C(=O)N(c3cccc(NC(C)=O)c3)C(c3ccccc3)S2(=O)=O)cc(OC)c1OC` (configuration not stated) were, in that order, over 200 µM and 87.1 µM.
The matching figures for `CCCCCCCN=C(N)CSSCC(N)=NCCCCCCC`: over 331 µM and 10.2 µM.
Consider `CN(C)CCNC(=O)c1cccc(NC(=O)c2ccccc2)c1[N+](=O)[O-]`, for which the EC50 is over 200 µM and the IC50 is over 200 µM.
`N/C(=N\NS(=O)(=O)c1ccccc1)Oc1ccc(Br)cc1Br`: the EC50 is over 112 µM and the IC50 was over 112 µM.
In the case of `Clc1cc(Cl)c2c(c1)[nH]c1nc3ccccc3nc12`, the EC50 was over 18.2 µM and the 50% inhibitory concentration (IC50) was over 18.2 µM.
As to `CC1CCCN2C(=O)CN(C3CCCCC3)CC(=O)N12` (configuration not stated), the EC50 is over 200 µM and the IC50 was over 200 µM.
With `CCCCn1c(C)c(C(=O)OCC)c2cc(OCc3ccc(C(=O)Nn4c(C)ccc4C)cc3)c(Br)cc21`, the EC50 is over 95.5 µM and the 50% inhibitory concentration (IC50) was over 95.5 µM.
On to `O=S(=O)(SC1=NCCN1)c1ccc2ccccc2c1`, for which the EC50 is 22.9 µM and the IC50 is 29.5 µM.
As to `CC[N+](C)(C)c1ccc(C(=C2C=CC(=[N+](C)C)C=C2)c2ccc(N(C)C)cc2)cc1`, the result was inactive.
As to `COc1cc(/C=C(\C)[N+](=O)[O-])cc(OC)c1`, the EC50 is over 200 µM and the half-inhibitory concentration (IC50) was 3.39 µM.
The matching figures for `CC[N+]1(C)CCC(O)(/C=C/c2ccc(OC)cc2)C(C(=O)/C=C/c2ccc(OC)cc2)C1` (configuration not stated): over 200 µM and 1.12 µM.
The like results for `Cc1c(N=Nc2ccc([N+](=O)[O-])cc2)nc2scc(-c3ccccc3)n12` were, in that order, over 14.5 µM and over 14.5 µM.
Turning to `CCOC(=O)P(=O)(O)c1ccc(N(C)Cc2ccccc2)cc1`, the EC50 is over 200 µM and the half-maximal inhibitory concentration (IC50) is over 200 µM.
Consider `CCCCC(C(=O)C(=O)Nc1ccc(C)cc1C)C(=O)C(C)C` (configuration not stated), for which the EC50 was over 794 µM and the IC50 was over 794 µM.
Regarding `CCOc1ccc(NC(=O)C(=O)CC(=O)C2=C(C)Nc3ccccc3S2)cc1`, the EC50 was over 64.6 µM and the IC50 is over 64.6 µM.
On to `COc1ccc(C23c4ccc(OC)cc4CC2(c2ccc([N+](=O)[O-])cc2)Cc2cc(OC)ccc23)cc1` (configuration not stated), for which the EC50 is over 200 µM and the IC50 is over 200 µM.
In the case of `COc1ccccc1CO[C@]1(C)CNCC(C)(C)NC(=O)[C@](C)(OCc2ccccc2OC)CNCC(C)(C)NC1=O`, the EC50 is over 200 µM and the IC50 stood at 91.2 µM.
As for `COc1ccc2nc3ccc(OC)cc3c(S(=O)CCCl)c2c1` (configuration not stated), the EC50 was over 200 µM and the IC50 is 3.63 µM.
The matching figures for `CC1(C)OC2[C@@H](CO[C@@]3([C@@H](O)CCO)OC(C)(C)O[C@@H]23)O1` (some centres not stated): over 200 µM and over 200 µM.
For `N#C/C(=C\NC(N)=S)C(=O)c1ccc2ccccc2c1`, the result was inactive.
In the case of `O=C(/C=C/C1C(=O)NC(=O)NC1=O)CC(=O)C(=O)Nc1cc(Cl)c(Cl)cc1Cl`, the EC50 was over 209 µM and the concentration for half-maximal inhibition (IC50) is over 209 µM.
On to `C/C(=C/CNc1ncnc2c1ncn2CCC#N)CO`, for which the EC50 is over 200 µM and the IC50 was over 200 µM.
`COc1cc(CC2C(=O)OCC2[C@@H](OC(C)=O)c2ccc3c(c2)OCO3)c(Br)c(OC)c1OC` (some centres not stated): the EC50 was over 50.1 µM and the concentration for half-maximal inhibition (IC50) was 43.7 µM.
On to `COC(=O)C(CCCN1C(=O)c2ccccc2C1=O)C(=O)OC`, for which the outcome was inactive.
`COC(=O)/C(=N\NC(=O)C[N+](C)(C)C)C(C(=O)OC)C(=O)C(=O)Nc1ccccc1C(N)=O` (configuration not stated): the EC50 was over 501 µM and the IC50 was over 501 µM.
Regarding `CC(=O)OC1C=CC(SC23CC4CC(CC(C4)C2)C3)N(C(C)=O)C1SC12CC3CC(CC(C3)C1)C2` (configuration not stated), the EC50 was over 200 µM and the IC50 was over 200 µM.
`O/N=C1/CCCCCC1NO` (configuration not stated): the EC50 was over 200 µM and the IC50 is over 200 µM.
Turning to `CC(C)(C)OC(=O)CN1CCNCCNCC1`, the EC50 is over 100 µM and the IC50 was over 100 µM.
Regarding `CSC1=NN(C(C)=O)C(C(OC(C)=O)C(OC(C)=O)C(OC(C)=O)C(COC(C)=O)OC(C)=O)S1` (configuration not stated), the outcome was inactive.
As to `COCn1cnc2c(=O)n(-c3ccc(C)cc3)c(=S)n(-c3ccc(C)cc3)c21`, the EC50 is over 200 µM and the half-inhibitory concentration (IC50) stood at 138 µM.
As for `O=C(/C=C/c1cc2ccccc2o1)N1CCN(c2ccccn2)CC1`, the EC50 was over 200 µM and the IC50 is 191 µM.
The matching figures for `S=C1N=C(Cl)/C(=C\c2ccccc2)N1`: over 200 µM and over 200 µM.
The like results for `O=C(NC1C2CC3CC(C2)CC1C3)/C(Cl)=C1/Sc2ccccc2NC1=O` (configuration not stated) were, in that order, over 5.13 µM and over 5.13 µM.
The matching figures for `COc1ccc(/C=C(\C#N)c2ccc(Cl)cc2)cc1OC`: over 200 µM and 174 µM.
Consider `CCOC(=O)CC1(C)c2nc(NC(C)=O)sc2Cc2sc(NC(C)=O)nc21`, for which the EC50 is over 200 µM and the IC50 was 186 µM.
The like results for `CC1C(c2ccc3c(c2)OCO3)c2cc3c(cc2OC1N1CCOCC1)OCO3` (configuration not stated) were, in that order, over 200 µM and 10.7 µM.
The matching figures for `COc1cc(OC)cc(-n2c(N)c(C#N)c3ccc([N+](=O)[O-])cc3c2=O)c1`: over 200 µM and over 200 µM.
The like results for `Cc1ccc2c(c1)C(=O)c1[nH]c3ccc(F)cc3c1CO2` were, in that order, over 200 µM and over 200 µM.
Turning to `O=C(O)CN1CCNCCN(CC(=O)O)CC1`, the EC50 is over 100 µM and the IC50 was determined as 9.77 µM.
In the case of `Nc1ccc(C(=O)NN2C(=O)C(Cl)C2c2cc(Br)ccc2O)cc1` (configuration not stated), the EC50 was over 200 µM and the half-maximal inhibitory concentration (IC50) is 30.9 µM.
`Cn1c(=O)c2ccc(-c3ccc(Br)cc3)nc2n(C)c1=O`: the result was inactive.
Consider `O=C(Nc1ccc(Cl)c(Cl)c1)OCCN1c2ccccc2Sc2ccccc21`, for which the EC50 is over 200 µM and the IC50 came to 38 µM.
